Data set [1] addresses T1, rhFMO1 (Homo sapiens, UniProt Q01740).
T1 construct: purchased Corning Inc
T1 sequence (Q01740 1-532): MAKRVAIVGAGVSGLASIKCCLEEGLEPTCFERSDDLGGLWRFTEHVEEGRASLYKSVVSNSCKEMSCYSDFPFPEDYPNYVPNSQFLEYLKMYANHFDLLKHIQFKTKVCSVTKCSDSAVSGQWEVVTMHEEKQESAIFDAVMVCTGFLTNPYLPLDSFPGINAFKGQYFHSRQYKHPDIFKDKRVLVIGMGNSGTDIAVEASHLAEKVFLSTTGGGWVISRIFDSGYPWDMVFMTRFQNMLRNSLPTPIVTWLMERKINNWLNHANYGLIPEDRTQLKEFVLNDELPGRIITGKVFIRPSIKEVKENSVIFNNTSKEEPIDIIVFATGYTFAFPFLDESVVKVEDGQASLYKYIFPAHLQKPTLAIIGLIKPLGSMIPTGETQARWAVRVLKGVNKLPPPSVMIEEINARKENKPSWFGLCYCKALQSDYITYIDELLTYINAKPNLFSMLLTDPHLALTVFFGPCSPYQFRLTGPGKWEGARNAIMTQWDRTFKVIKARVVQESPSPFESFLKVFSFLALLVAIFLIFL
As to the kind of experiment: Incubation of MPZ with recombinant FMO: FMO1. The note with it: 1 µM MPZ, pH 8.4. It is filed as in vitro ADME. The protocol:
MPZ at 1.0 µM was incubated in triplicate with individual recombinant FMO (Supersomes™ for FMO 1, FMO3, and FMO5). Protein concentrations for all rFMO isoforms were 0.05 mg/ml. A positive control (benzydamine, 100 µM) was incubated for 20 min. The reaction mixture containing MPZ or FMO substrate, KPi buffer (pH 8.4), and FMO Supersomes™ was pre‐incubated at 37°C for 3–5 min. All other procedures were the same as described previously. The negative control reactions were incubated absence of NADPH.

For data set [2], the system named is human D2 receptor. Set-up: method as in earlier work. The following applies: cited from earlier work.

SMILES strings stand for the structures.

The values that follow come from publication PMC8929364, “Metopimazine is primarily metabolized by a liver amidase in humans” (Pharmacology Research & Perspectives, 2021).

As for `CS(=O)(=O)c1ccc2c(c1)N(CCCN1CCC(C(N)=O)CC1)c1ccccc1S2` [MPZ, metopimazine], the “metabolism by rhFMO1” value in data set [1] is recorded as “did not metabolize MPZ”. For the molecule `CS(=O)(=O)c1ccc2c(c1)N(CCCN1CCC(C(=O)O)CC1)c1ccccc1S2` [MPZA, metopimazine acid], in data set [2], the “fold less potent at the human D2 receptor compared to the parent” value is “about 200 fold”.
